This passage reports GI50 results from patent publication US8835458B2 (Hanmi Science Co., Ltd, priority 2010, dated 2014).

Structures can show the parent of a compound that is named as a salt. Where two headings read alike, the source gives them in different places.

The nature of data set [1]: Toxicity to normal cells (SRB). The format is cell-based, human. The following applies: human, Hs27 fibroblasts (normal cell line). Summed up:
(§1)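 Cells seeded at 3,000˜5,000 cells/100 μL, grown 24 h at 37° C (MDA-MB-231 under atmospheric conditions), then exposed to 10 μM˜0.1 nM compound. MDA-MB-231 cultured 120 h, read by MTS at 490 nm; fibroblasts cultured 72 h, TCA-fixed, SRB-stained, read at 540 nm. GI50 from growth relative to untreated and medium-only cells.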

The nature of data set [2]: Toxicity to normal cells (SRB). In kind it is cell-based, mouse. The following applies: mouse, Balb/c3t3 fibroblasts (normal cell line), read-out: BalB/C (GI50). Summed up: as §1
In data set [3] the test system is MDA-MB-231 breast cancer cell lines. The data set can be described thus: Evaluation of inhibition on cell growth (MTS). The following applies: Homo sapiens, MDA-MB-231, 120 hours. The format is cell-based. The essentials:
as §1

Take `CN[C@@H](C)C(=O)N[C@H](C(=O)N1CCC[C@H]1C(=O)Nc1cc2c(Nc3c(F)cccc3F)ncnc2cc1OC)C(C)(C)C` [Example 59, (S)—N-(4-(2,6-difluorophenylamino)-7-methoxyquinazolin-6-yl)-1-((S)-3,3-dimethyl-2-((S)-2-(methylamino)propanamido)butanoyl)pyrrolidine-2-carboxamide]: the GI50 at 72 h in data set [1] and in data set [2] was > 10 µM in each case. In addition, the GI50 in data set [3] is ≤ 100 nM.
As to `CN[C@@H](C)C(=O)N[C@H](C(=O)N1CCC[C@H]1C(=O)Nc1cc2c(Nc3ccc(N4CCS(=O)(=O)CC4)cc3)ncnc2cc1OC)C(C)(C)C` [Example 72, (S)—N-(4-((1,1-dioxide-4-thiomorpholinyl)phenylamino)-7-methoxyquinazolin-6-yl)-1-((S)-3,3-dimethyl-2-((S)-2-(methylamino)propanamido)butanoyl)pyrrolidine-2-carboxamide], the GI50 at 72 h in data set [1] and in data set [2] was > 10 µM throughout. In addition, the GI50 in data set [3] is ≤ 100 nM.
Turning to `CN[C@@H](C)C(=O)N[C@H](C(=O)N1CCC[C@H]1C(=O)Nc1cc2c(Nc3cccc(Cl)c3F)ncnc2cc1OC)C(C)(C)C.Cl` [Example 7, hydrochloride], the GI50 at 72 h in data set [1] and in data set [2] was > 10 µM in each case. In data set [3], the GI50 was ≤ 100 nM.
With `CN[C@@H](C)C(=O)N[C@H](C(=O)N1CCC[C@H]1C(=O)Nc1cc2c(Nc3ccccc3N3CCOCC3)ncnc2cc1OC)C(C)(C)C` [Example 47, (S)-1-((S)-3,3-dimethyl-2-((S)-2-(methylamino)propanamido)butanoyl)-N-(7-methoxy-4-(2-morpholinophenylamino)quinazolin-6-yl)pyrrolidine-2-carboxamide], the GI50 at 72 h in data set [1] and in data set [2] was > 10 µM each time. In addition, in data set [3], the GI50 is ≤ 100 nM.
`CN[C@@H](C)C(=O)N[C@H](C(=O)N1CCC[C@H]1C(=O)Nc1cc2c(Nc3cnc4ccccc4c3)ncnc2cc1OC)C(C)(C)C` [Example 62, (S)-1-((S)-3,3-dimethyl-2-((S)-2-(methylamino)propanamido)butanoyl)-N-(7-methoxy-4-(quinoline-3-ylamino)quinazolin-6-yl)pyrrolidine-2-carboxamide dihydrochloride]: the GI50 at 72 h in data set [1] and in data set [2] was > 10 µM each time. Further, in data set [3], the GI50 is 100 to 1000 nM.
As for `CNC(=O)c1ccc(Nc2ncnc3cc(OC)c(NC(=O)[C@@H]4CCCN4C(=O)[C@@H](NC(=O)[C@H](C)NC)C(C)(C)C)cc23)cc1` [Example 74, (S)-1-((S)-3,3-dimethyl-2-((S)-2-(methylamino)propanamido)butanoyl)-N-(7-methoxy-4-(4-(methylcarbamoyl)phenylamino)quinazolin-6-yl)pyrrolidine-2-carboxamide], the GI50 at 72 h in data set [1] and in data set [2] was > 10 µM throughout. In addition, the GI50 in data set [3] was ≤ 100 nM.
Regarding `CN[C@@H](C)C(=O)N[C@H](C(=O)N1CCC[C@H]1C(=O)Nc1cc2c(Nc3ccc(OC)cc3)ncnc2cc1OC)C(C)(C)C` [Example 49, (S)-1-((S)-3,3-dimethyl-2-((S)-2-(methylamino)propanamido)butanoyl)-N-(7-methoxy-4-(4-methoxyphenylamino)quinazolin-6-yl)pyrrolidine-2-carboxamide hydrochloride], the GI50 at 72 h in data set [1] and in data set [2] was > 10 µM in each case. Besides, in data set [3], the GI50 is ≤ 100 nM.
On to `CN[C@@H](C)C(=O)N[C@H](C(=O)N1CCC[C@H]1C(=O)Nc1cc2c(Nc3cccc(OC)c3)ncnc2cc1OC)C(C)(C)C` [Example 57, (S)-1-((S)-3,3-dimethyl-2-((S)-2-(methylamino)propanamido)butanoyl)-N-(7-methoxy-4-(3-methoxyphenylamino)quinazolin-6-yl)pyrrolidine-2-carboxamide hydrochloride], for which the GI50 at 72 h in data set [1] and in data set [2] was > 10 µM throughout. In addition, the GI50 in data set [3] was ≤ 100 nM.
Regarding `C=CC(=O)N[C@@H](C)C(=O)N[C@H](C(=O)N1CCC[C@H]1C(=O)Nc1cc2c(Nc3ccc(F)c(Cl)c3F)ncnc2cc1OC)C(C)(C)C` [Example 13, (S)-1-((S)-2-((S)-2-acrylamidopropanamido)-3,3-dimethylbutanoyl)-N-(4-(3-chloro-2,4-difluorophenylamino)-7-methoxyquinazolin-6-yl)pyrrolidine-2-carboxamide hydrochloride], the GI50 at 72 h in data set [1] and in data set [2] was > 10 µM throughout. The GI50 in data set [3] is ≥ 1000 nM.
Regarding `CNc1ncnc2cc(OC)c(NC(=O)[C@@H]3CCCN3C(=O)[C@@H](NC(=O)[C@H](C)NC)C(C)(C)C)cc12` [Example 23, (S)-1-((S)-3,3-dimethyl-2-((S)-2-(methylamino)propanamido)butanoyl)-N-(7-methoxy-4-(methylamino)quinazolin-6-yl)pyrrolidine-2-carboxamide], the GI50 at 72 h in data set [1] and in data set [2] was > 10 µM throughout. Further, the GI50 in data set [3] was ≤ 100 nM.
On to `C#CCO[C@H](C)[C@H](NC(=O)[C@H](C)NC)C(=O)N1CCC[C@H]1C(=O)Nc1cc2c(Nc3ccc(F)c(Cl)c3F)ncnc2cc1OC` [Example 45, (S)—N-(4-(3-chloro-2,4-difluorophenylamino)-7-methoxyquinazolin-6-yl)-1-((2S,3R)-2-((S)-2-(methylamino)propanamido)-3-(prop-2-ynyloxy)butanoyl)pyrrolidine-2-carboxamide hydrochloride], for which the GI50 at 72 h in data set [1] and in data set [2] was > 10 µM throughout. The GI50 in data set [3] was ≤ 100 nM.
Take `CCN1CCN(c2ccc(Nc3ncnc4cc(OC)c(NC(=O)[C@@H]5CCCN5C(=O)[C@@H](NC(=O)[C@H](C)NC)C(C)(C)C)cc34)cc2)CC1` [Example 60, (S)-1-((S)-3,3-dimethyl-2-((S)-2-(methylamino)propanamido)butanoyl)-N-(4-(4-(4-ethylpiperazin-1-yl)phenylamino)-7-methoxyquinazolin-6-yl)pyrrolidine-2-carboxamide]: the GI50 at 72 h in data set [1] and in data set [2] was > 10 µM in each case. In data set [3], this compound came in with a GI50 of 100 to 1000 nM.
Regarding `CN[C@@H](C)C(=O)N[C@H](C(=O)N1CCC[C@H]1C(=O)Nc1ccc2ncnc(Nc3cccc(Cl)c3F)c2c1)C(C)(C)C` [Example 4, (S)—N-(4-(3-chloro-2-fluorophenylamino)quinazolin-6-yl)-1-((S)-3,3-dimethyl-2-((S)-2-(methylamino)propanamido)butanoyl)pyrrolidine-2-carboxamide hydrochloride], the GI50 at 72 h in data set [1] and in data set [2] was > 10 µM throughout. The GI50 in data set [3] lay in the range of 100 to 1000 nM.
`CN[C@@H](C)C(=O)N[C@H](C(=O)N1CCC[C@H]1C(=O)Nc1cc2c(Nc3ccc(Cl)cc3F)ncnc2cc1OC)C(C)(C)C` [Example 29, (S)—N-(4-(4-chloro-2-fluorophenylamino)-7-methoxyquinazolin-6-yl)-1-((S)-3,3-dimethyl-2-((S)-2-(methylamino)propanamido)butanoyl)pyrrolidine-2-carboxamide hydrochloride]: the GI50 at 72 h in data set [1] and in data set [2] was > 10 µM throughout. The GI50 in data set [3] was ≤ 100 nM.
